{"source": "patent US20220218677A1", "about": "“ARYLQUINOZILINE DERIVATIVES AS ALPHA2-ADRENOCEPTOR SUBTYPE C (ALPHA-2C) ANTAGONISTS FOR THE TREATMENT OF SLEEP APNEA” (Bayer Aktiengesellschaft, priority 2019, published 2022)", "system": "upper airway collapsibility in anaesthetized, spontaneously breathing pigs", "experiment": "pig model of obstructive sleep apnea (OSA): upper airway collapsibility under negative pressure", "assay_type": "in vivo, German Landrace pigs", "conditions": "for Percent pigs without collaps −50 cm H2O / Percent pigs without collaps −100 cm H2O / Percent pigs without collaps −150 cm H2O: i.v. bolus 0.3 mg/kg then i.v. infusion 0.1 mg/kg/h", "source_text": "The therapeutic potential of the compounds of formula (I) according to the present invention in sleep apnea has been assessed preclinically in a pig model of obstructive sleep apnea (OSA).\nUsing negative pressure, it is possible to induce collapse and thus obstruction of the upper respiratory tract in anaesthetized, spontaneously breathing pigs (Wirth K. J. et al., Sleep 36(5) (2013) pp. 699-708).\nGerman Landrace pigs are used for the model. The pigs are anaesthetized and tracheotomized. Two tracheal are inserted into the trachea, one into the rostral part and the other into the caudal part of the trachea. Using a connection piece, the rostral cannula is connected to a tube to the negative pressure device and to the distal tracheal cannula. The distal tracheal cannula is additionally connected to a tube with an open end to atmosphere via a connection piece that served for free tracheal breathing, circumventing the upper airway. By appropriate opening and clamping of those tubes breathing can be switched from nasal breathing to breathing through the caudal tracheal cannula, circumventing the upper airway, and the (isolated) upper airway can be connected to the negative pressure device, causing airflow in the inspiratory direction.\nAt certain points in time, the collapsibility of the upper respiratory tract is tested by having the pig breathe via the caudal cannula and applying negative pressures of −50, −100 and −150 cm water head (cm H2O) to the upper respiratory tract. This causes the upper respiratory tract to collapse, which manifests itself in an interruption of the airflow and a pressure drop in the tube system. This test is conducted prior to the administration of the test substance and at certain intervals after the administration of the test substance. An appropriately effective test substance can prevent this collapse of the respiratory tract in the inspiratory phase.\nIn this OSA pig model, systemic application of the α2-Adrenoceptor subtype C (alpha-2C) antagonists of formula (I) (1S,12bS)-1-(methoxymethyl)-1-methyl-[…][2,3-a]quinolizine with i.v. bolus injection of 0.3 mg/kg followed by an i.v. infusion of 0.1 mg/kg/h for four hours inhibited upper airway collapsibility at all negative pressures of −50, −100 and −150 cm for more than 6 hours (see Table 1, 2 and 3 and FIG. 1).", "key": {"[1]": {"conditions": "time 0 min (time of administration)"}}}
{"smiles": "COC[C@@]1(C)CCCN2CCc3c(oc4ccccc34)[C@@H]21", "note": "[(1S,12bS)-1-(methoxymethyl)-1-methyl-1,3,4,6,7,12b-hexahydro-2H-[1]benzofuro[2,3-a]quinolizine]", "values": [{"measurement": "duration of inhibition of upper airway collapsibility", "setting": "all negative pressures of −50, −100 and −150 cm, i.v. bolus 0.3 mg/kg followed by i.v. infusion 0.1 mg/kg/h for four hours", "value": "more than 6 hours"}, {"measurement": "Percent pigs without collaps −50 cm H2O", "setting": "[1]", "value": 0, "unit": "%"}, {"measurement": "Percent pigs without collaps −100 cm H2O", "setting": "[1]", "value": 0, "unit": "%"}, {"measurement": "Percent pigs without collaps −150 cm H2O", "setting": "[1]", "value": 0, "unit": "%"}, {"measurement": "Percent pigs without collaps −50 cm H2O", "setting": "time 10 min", "value": 100, "unit": "%"}, {"measurement": "Percent pigs without collaps −100 cm H2O", "setting": "time 10 min", "value": 100, "unit": "%"}, {"measurement": "Percent pigs without collaps −150 cm H2O", "setting": "time 10 min", "value": 100, "unit": "%"}, {"measurement": "Percent pigs without collaps −50 cm H2O", "setting": "time 60 min", "value": 100, "unit": "%"}, {"measurement": "Percent pigs without collaps −100 cm H2O", "setting": "time 60 min", "value": 100, "unit": "%"}, {"measurement": "Percent pigs without collaps −150 cm H2O", "setting": "time 60 min", "value": 100, "unit": "%"}, {"measurement": "Percent pigs without collaps −50 cm H2O", "setting": "time 120 min", "value": 100, "unit": "%"}, {"measurement": "Percent pigs without collaps −100 cm H2O", "setting": "time 120 min", "value": 100, "unit": "%"}, {"measurement": "Percent pigs without collaps −150 cm H2O", "setting": "time 120 min", "value": 100, "unit": "%"}, {"measurement": "Percent pigs without collaps −50 cm H2O", "setting": "time 180 min", "value": 100, "unit": "%"}, {"measurement": "Percent pigs without collaps −100 cm H2O", "setting": "time 180 min", "value": 100, "unit": "%"}, {"measurement": "Percent pigs without collaps −150 cm H2O", "setting": "time 180 min", "value": 100, "unit": "%"}, {"measurement": "Percent pigs without collaps −50 cm H2O", "setting": "time 240 min", "value": 100, "unit": "%"}, {"measurement": "Percent pigs without collaps −100 cm H2O", "setting": "time 240 min", "value": 100, "unit": "%"}, {"measurement": "Percent pigs without collaps −150 cm H2O", "setting": "time 240 min", "value": 100, "unit": "%"}, {"measurement": "Percent pigs without collaps −50 cm H2O", "setting": "time 300 min", "value": 100, "unit": "%"}, {"measurement": "Percent pigs without collaps −100 cm H2O", "setting": "time 300 min", "value": 100, "unit": "%"}, {"measurement": "Percent pigs without collaps −150 cm H2O", "setting": "time 300 min", "value": 100, "unit": "%"}]}
